Source: BindingDB's records for doi:10.1016/j.bmcl.2010.03.092 (Takeda California, 2010)

molecular target: Histone deacetylase 2 (Homo sapiens) (UniProt Q92769); assay: Inhibition of human recombinant HDAC2
Sequence (Q92769 whole entry, looked up): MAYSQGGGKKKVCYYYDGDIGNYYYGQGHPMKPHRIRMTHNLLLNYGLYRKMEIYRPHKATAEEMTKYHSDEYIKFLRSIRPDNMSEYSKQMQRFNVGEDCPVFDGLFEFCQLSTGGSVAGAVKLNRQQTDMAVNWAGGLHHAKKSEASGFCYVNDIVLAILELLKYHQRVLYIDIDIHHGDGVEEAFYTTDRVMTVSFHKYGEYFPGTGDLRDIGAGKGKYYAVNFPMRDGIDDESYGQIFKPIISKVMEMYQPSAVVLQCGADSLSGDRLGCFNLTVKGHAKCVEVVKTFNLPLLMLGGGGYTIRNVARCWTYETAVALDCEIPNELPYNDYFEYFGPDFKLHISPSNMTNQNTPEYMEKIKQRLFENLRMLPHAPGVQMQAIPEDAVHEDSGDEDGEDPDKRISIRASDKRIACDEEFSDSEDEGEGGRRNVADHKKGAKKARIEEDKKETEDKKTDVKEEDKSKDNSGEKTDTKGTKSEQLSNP

Compound | IC50
Cc1c(-c2ccccc2)nc(-c2cccc(/C=C/C(=O)NO)c2)n1[C@@H]1CCCN(C)C1 [(R)-N-hydroxy-3-(3-(5-methyl-1-(1-methylpiperidin-3-yl)-4-phenyl-1H-imidazol-2-yl)phenyl)acrylamide] | 5 nM
Cc1c(-c2ccccc2)nc(-c2cccc(/C=C/C(=O)NO)c2)n1[C@@H]1CCCN(C(C)C)C1 [(R)-N-hydroxy-3-(3-(1-(1-isopropylpiperidin-3-yl)-5-methyl-4-phenyl-1H-imidazol-2-yl)phenyl)acrylamide] | 5 nM
O=C(/C=C/c1cccc(-c2nc3ccccc3[nH]2)c1)NO [3-(3-(1H-benzo[d]imidazol-2-yl)phenyl)-N-hydroxyacrylamide] | 100 nM
CCN1CCC[C@@H](n2c(Cc3ccccc3)nc(C)c2-c2cccc(/C=C/C(=O)NO)c2)C1 [(R)-3-(3-(2-benzyl-1-(1-ethylpiperidin-3-yl)-4-methyl-1H-imidazol-5-yl)phenyl)-N-hydroxyacrylamide] | 120 nM
Cc1c(Cc2ccccc2)nc(-c2cccc(/C=C/C(=O)NO)c2)n1CCc1ccccc1 [3-(3-(4-benzyl-5-methyl-1-phenethyl-1H-imidazol-2-yl)phenyl)-N-hydroxyacrylamide] | 7.9 nM
Cc1nc(-c2cccc(/C=C/C(=O)NO)c2)n([C@@H]2CCCN(C)C2)c1-c1ccccc1 [(R)-N-hydroxy-3-(3-(4-methyl-1-(1-methylpiperidin-3-yl)-5-phenyl-1H-imidazol-2-yl)phenyl)acrylamide] | 10 nM
CCN1CCC[C@@H](n2c(-c3cccc(/C=C/C(=O)NO)c3)nc(Cc3ccccc3)c2C)C1 [(R)-3-(3-(4-benzyl-1-(1-ethylpiperidin-3-yl)-5-methyl-1H-imidazol-2-yl)phenyl)-N-hydroxyacrylamide] | 10 nM
O=C(/C=C/c1cccc(-c2nc3ccccc3n2-c2ccccc2)c1)NO [N-hydroxy-3-(3-(1-phenyl-1H-benzo[d]imidazol-2-yl)phenyl)acrylamide] | 63 nM
Cc1nc(-c2cccc(/C=C/C(=O)NO)c2)n(CCc2ccccc2)c1-c1ccccc1 [N-hydroxy-3-(3-(4-methyl-1-phenethyl-5-phenyl-1H-imidazol-2-yl)phenyl)acrylamide] | 7.9 nM
C[C@H](c1ccccc1)n1c(-c2cccc(/C=C/C(=O)NO)c2)nc2ccccc21 [(R)-N-hydroxy-3-(3-(1-(1-phenylethyl)-1H-benzo[d]imidazol-2-yl)phenyl)acrylamide] | 25 nM
O=C(/C=C/c1cccc(-c2nc3ccccc3n2Cc2ccccc2)c1)NO [3-(3-(1-benzyl-1H-benzo[d]imidazol-2-yl)phenyl)-N-hydroxyacrylamide] | 50 nM
Cc1nc(-c2cccc(/C=C/C(=O)NO)c2)n(CCc2ccccc2)c1Cc1ccccc1 [3-(3-(5-benzyl-4-methyl-1-phenethyl-1H-imidazol-2-yl)phenyl)-N-hydroxyacrylamide] | 5 nM
Cc1c(Cc2ccccc2)nc(-c2cccc(/C=C/C(=O)NO)c2)n1[C@@H]1CCCN(C)C1 [(R)-3-(3-(4-benzyl-5-methyl-1-(1-methylpiperidin-3-yl)-1H-imidazol-2-yl)phenyl)-N-hydroxyacrylamide] | 6.3 nM
Cc1nc(C)n(CCc2ccccc2)c1-c1cccc(/C=C/C(=O)NO)c1 [3-(3-(2,4-dimethyl-1-phenethyl-1H-imidazol-5-yl)phenyl)-N-hydroxyacrylamide] | 79 nM
COc1ccc(-n2c(-c3cccc(/C=C/C(=O)NO)c3)nc3ccccc32)cc1 [N-hydroxy-3-(3-(1-(4-methoxyphenyl)-1H-benzo[d]imidazol-2-yl)phenyl)acrylamide] | 40 nM
Cc1c(-c2ccccc2)nc(-c2cccc(/C=C/C(=O)NO)c2)n1CCc1ccccc1 [N-hydroxy-3-(3-(5-methyl-1-phenethyl-4-phenyl-1H-imidazol-2-yl)phenyl)acrylamide] | 5 nM
Cc1nc(-c2cccc(/C=C/C(=O)NO)c2)n(CCc2ccccc2)c1C [3-(3-(4,5-dimethyl-1-phenethyl-1H-imidazol-2-yl)phenyl)-N-hydroxyacrylamide] | 7.9 nM
Cc1nc(-c2cccc(/C=C/C(=O)NO)c2)n([C@@H]2CCCN(C(C)C)C2)c1-c1ccccc1 [(R)-N-hydroxy-3-(3-(1-(1-isopropylpiperidin-3-yl)-4-methyl-5-phenyl-1H-imidazol-2-yl)phenyl)acrylamide] | 6.3 nM
Cc1nc(Cc2ccccc2)n(CCc2ccccc2)c1-c1cccc(/C=C/C(=O)NO)c1 [3-(3-(2-benzyl-4-methyl-1-phenethyl-1H-imidazol-5-yl)phenyl)-N-hydroxyacrylamide] | 40 nM
CCN1CCC[C@@H](n2c(-c3cccc(/C=C/C(=O)NO)c3)nc(C)c2-c2ccccc2)C1 [(R)-3-(3-(1-(1-ethylpiperidin-3-yl)-4-methyl-5-phenyl-1H-imidazol-2-yl)phenyl)-N-hydroxyacrylamide] | 7.9 nM
CCN1CCC[C@@H](n2c(-c3cccc(/C=C/C(=O)NO)c3)nc(C)c2C)C1 [(R)-3-(3-(1-(1-ethylpiperidin-3-yl)-4,5-dimethyl-1H-imidazol-2-yl)phenyl)-N-hydroxyacrylamide] | 12 nM
Cc1nc(-c2cccc(/C=C/C(=O)NO)c2)n(CCN2CCOCC2)c1C [3-(3-(4,5-dimethyl-1-(2-morpholinoethyl)-1H-imidazol-2-yl)phenyl)-N-hydroxyacrylamide] | 31 nM

Next, values leading:

IC50 | Compound
50 nM | O=C(/C=C/c1cccc(-c2nc3ccccc3n2CCN2CCOCC2)c1)NO [N-hydroxy-3-(3-(1-(2-morpholinoethyl)-1H-benzo[d]imidazol-2-yl)phenyl)acrylamide]
12 nM | Cc1c(Cc2ccccc2)nc(-c2cccc(/C=C/C(=O)NO)c2)n1CCN1CCOCC1 [3-(3-(4-benzyl-5-methyl-1-(2-morpholinoethyl)-1H-imidazol-2-yl)phenyl)-N-hydroxyacrylamide]
120 nM | Cn1c(-c2cccc(/C=C/C(=O)NO)c2)nc2ccccc21 [N-hydroxy-3-(3-(1-methyl-1H-benzo[d]imidazol-2-yl)phenyl)acrylamide]
12 nM | O=C(/C=C/c1cccc(-c2nc3ccccc3n2CCCc2ccccc2)c1)NO [N-hydroxy-3-(3-(1-(3-phenylpropyl)-1H-benzo[d]imidazol-2-yl)phenyl)acrylamide]
31 nM | CCN(CC)CCn1c(-c2cccc(/C=C/C(=O)NO)c2)nc2ccccc21 [3-(3-(1-(2-(diethylamino)ethyl)-1H-benzo[d]imidazol-2-yl)phenyl)-N-hydroxyacrylamide]
31 nM | CCN1CCC[C@H](n2c(-c3cccc(/C=C/C(=O)NO)c3)nc3ccccc32)C1 [(S)-3-(3-(1-(1-ethylpiperidin-3-yl)-1H-benzo[d]imidazol-2-yl)phenyl)-N-hydroxyacrylamide]
63 nM | CN(C)CCn1c(-c2cccc(/C=C/C(=O)NO)c2)nc2ccccc21 [3-(3-(1-(2-(dimethylamino)ethyl)-1H-benzo[d]imidazol-2-yl)phenyl)-N-hydroxyacrylamide]
7.9 nM | O=C(/C=C/c1cccc(-c2nc3ccccc3n2CCc2ccccc2)c1)NO [N-hydroxy-3-(3-(1-phenethyl-1H-benzo[d]imidazol-2-yl)phenyl)acrylamide]
10 nM | CCN1CCC[C@@H](n2c(-c3cccc(/C=C/C(=O)NO)c3)nc3ccccc32)C1 [(R)-3-(3-(1-(1-ethylpiperidin-3-yl)-1H-benzo[d]imidazol-2-yl)phenyl)-N-hydroxyacrylamide]
160 nM | O=C(/C=C/c1cccc(-c2nc3ccccc3n2CC2CCNCC2)c1)NO [N-hydroxy-3-(3-(1-(piperidin-4-ylmethyl)-1H-benzo[d]imidazol-2-yl)phenyl)acrylamide]
79 nM | CC(C)n1c(-c2cccc(/C=C/C(=O)NO)c2)nc2ccccc21 [N-hydroxy-3-(3-(1-isopropyl-1H-benzo[d]imidazol-2-yl)phenyl)acrylamide]
10 nM | O=C(/C=C/c1cccc(-c2nc3ccccc3n2CCN2CCCCC2)c1)NO [N-hydroxy-3-(3-(1-(2-(piperidin-1-yl)ethyl)-1H-benzo[d]imidazol-2-yl)phenyl)acrylamide]
31 nM | Cc1nc(-c2cccc(/C=C/C(=O)NO)c2)n(CCN2CCOCC2)c1-c1ccccc1 [N-hydroxy-3-(3-(4-methyl-1-(2-morpholinoethyl)-5-phenyl-1H-imidazol-2-yl)phenyl)acrylamide]
12 nM | O=C(/C=C/c1cccc(-c2nc3ccccc3n2[C@@H]2CCCNC2)c1)NO [(R)-N-hydroxy-3-(3-(1-(piperidin-3-yl)-1H-benzo[d]imidazol-2-yl)phenyl)acrylamide]
20 nM | CCN1CCCC(n2c(-c3cccc(/C=C/C(=O)NO)c3)nc3ccccc32)C1 (racemic) [(+/-)-3-(3-(1-(1-ethylpiperidin-3-yl)-1H-benzo[d]imidazol-2-yl)phenyl)-N-hydroxyacrylamide]
40 nM | CC(C)N(CCn1c(-c2cccc(/C=C/C(=O)NO)c2)nc2ccccc21)C(C)C [3-(3-(1-(2-(diisopropylamino)ethyl)-1H-benzo[d]imidazol-2-yl)phenyl)-N-hydroxyacrylamide]
16 nM | O=C(/C=C/c1cccc(-c2nc3ccccc3n2CCN2CCCC2)c1)NO [N-hydroxy-3-(3-(1-(2-(pyrrolidin-1-yl)ethyl)-1H-benzo[d]imidazol-2-yl)phenyl)acrylamide]
10 nM | Cc1nc(-c2cccc(/C=C/C(=O)NO)c2)n(CCN2CCOCC2)c1Cc1ccccc1 [3-(3-(5-benzyl-4-methyl-1-(2-morpholinoethyl)-1H-imidazol-2-yl)phenyl)-N-hydroxyacrylamide]
10 nM | CN1CCC[C@@H](n2c(-c3cccc(/C=C/C(=O)NO)c3)nc3ccccc32)C1 [(R)-N-hydroxy-3-(3-(1-(1-methylpiperidin-3-yl)-1H-benzo[d]imidazol-2-yl)phenyl)acrylamide]
10 nM | Cc1c(-c2ccccc2)nc(-c2cccc(/C=C/C(=O)NO)c2)n1CCN1CCOCC1 [N-hydroxy-3-(3-(5-methyl-1-(2-morpholinoethyl)-4-phenyl-1H-imidazol-2-yl)phenyl)acrylamide]
